The record followed here is PMC12668308, “A Novel Antimalarial Agent that Inhibits Protein Synthesis in Plasmodium falciparum” (Angewandte Chemie (International Ed. in English), 2025).

In test [1] the test system is Uncharacterized protein (W7JXH4). Description: iSPP profiling, P. falciparum lysate. Format: binding, Plasmodium falciparum. The method, then: P. falciparum NF54 lysates were extracted as described in ^[26^] . The parasite asynchronous culture was extracted once 3-5% parasitemia was reached. Saponin lysis was done as described in 2.2.10. Once the parasite pellet was obtained, 2.5 volumes of ice-cold lysis buffer (50 mM Tris/HCl pH 7.5 (Avantor), 5% glycerol (Sigma-Aldrich), 150 mM NaCl (Carl Roth), 1.5 mM MgCl2 (Sigma-Aldrich), 1 mM DTT (Carl Roth), 0.8% IGEPAL CA-630 (Sigma-Aldrich), 1X Halt Protease and Phosphatase Inhibitor-Cocktails EDTA-free (Thermo Fisher Scientific)) was added to the parasite pellet. The lysate solution was subjected to three cycles of flash freeze-thaw with liquid nitrogen and ddH2O at RT. The lysates were centrifuged at 20,000 g for 20 minutes at 4 °C. The soluble protein fraction (supernatant) was collected and the protein content was quantified using the BCA assay (Pierce™ BCA Protein Assay Kit, Thermo Fisher Scientific). The lysate was stored at -80 °C until further use.
The P. falciparum lysate was thawed on ice and diluted to 0.8 mg/mL. […] Subsequently, the samples were incubated at room temperature for 30 minutes using a rotating mixer. After distribution into a 96-well plate, the samples were treated with increasing concentrations of A.E.A. (v/v) ranging from 14% to 28% (14, 16, 18, 20, 22, 24, 26, and 28%). Following a 20-minute incubation at 37°C with shaking at 750 rpm, the samples were centrifuged at 4400 g for 35 minutes to remove precipitated proteins. The soluble fractions were then pooled in equal volumes into a single sample using the Bravo Automated Liquid Handling Platform. The pooled samples were subsequently prepared for LC-MS/MS analysis.
The raw LFQ-DIA intensity values of biological replicates across all conditions were normalized to the median abundance using Excel. The normalized values were then log2 transformed in Perseus (v2.0.10.0).^[58^] Missing values were imputed from a normal distribution (width 0.3, down shift 1.5), and p-values were obtained using a two-sample t-test over replicates with a permutation-based false discovery rate correction (FDR 0.05). Volcano plots were generated in RStudio using the EnhancedVolcano package (v. 1.20.0), ^[59^] plotting proteins by statistical significance (y-axis: –Log10 p-value) versus the magnitude of change (x-axis: log2 fold change of protein intensities for each compound condition relative to the vehicle control). The heatmap was generated in Perseus (v2.0.10.0). Dose-dependent curves were generated using normalized protein intensity values, expressed as a ratio to the vehicle control. Plots were created in GraphPad Prism (v8.3.0) using a nonlinear regression model.

The subject of test [2] is mRNA translation in NF54 trophozoite-stage parasites. Nature of the test: Surface sensing of translation (SUnSET) assay. Format: cell-based, Plasmodium falciparum. To be noted: trophozoites 30–35 hpi; 31 at 3x, 50x, 100x IC50; 34 and pyrimethamine at 3x IC50. The method, then:
To confirm the role of 31 as a translation inhibitor, the surface sensing of translation (SUnSET) assay was employed. This involves incubating the culture with a translation inhibitor, puromycin, a structural analogue of aminoacyl tRNA. Puromycin is incorporated in the nascent polypeptide chain and prevents further elongation. When puromcyin is used in sub‐lethal concentrations, incorporation of puromycin in neosynthesized protein correlates with the levels of mRNA translation (Figure 3c, lane2).^[ [27] ^] […] This trend was further confirmed by the quantified western blot signals (Figures 3d and S4C) that are consistent with the iSPP profiling results.
SUnSET: The SUnSET assay was done as described in. ^[27^]Tightly synchronized NF54 wild type parasites were treated with the compounds for 4h at 30-35 hpi (trophozoite stage). The following compounds and amounts used were: cycloheximide (3xIC50, 1,2 µM; Calbiochem), pyrimethamine (3xIC50, 21 nM; MedChemExpress), 34 (3xIC50, 12 µM), and 31 (3xIC50, 12 nM; 50xIC50, 200 nM; 100xIC50, 400 nM). Parasites were incubated with 1 µg mL^-1 (Sigma P8833) for 1 h at 37 °C and saponin lysis was performed.
Saponin lysis and Western blot: Saponin lysis was done on infected RBC at ~5% parasitemia to lyse erythrocytes. Parasite cultures were centrifuged at 1,200 g for 5 min at room temperature. Once the supernatant was discarded, 10 volumes of ice-cold 0.1% (w/v) saponin (Calbiochem 558255, dissolved in PBS, and filtered with 0,22) was added, incubated on ice for 10 min and centrifuged for 2,272 g for 15 min at 4 °C. […] The membrane was washed 3 times in PBS-T (3 min incubation in each washing step) and the signal was detected using the chemiluminescent substrate SuperSignal West Pico Plus (Thermo Scientific, REF 34580) and the imaging system Vilber Fusion FX7 Edge 17.10 SN. Quantification of Western blot signal was done by measuring the integrated density of each lane using ImageJ analysis software (version 1.54p). […]

On to `CN1CCN(Cc2ccc(O)c(NC(=O)c3cccc(Oc4cc(C(F)(F)F)ccn4)c3)c2)CC1` [Compound 31, N-(2-hydroxy-5-((4-methylpiperazin-1-yl)methyl)phenyl)-3-((4-(trifluoromethyl)pyridin-2-yl)oxy)benzamide], for which the log2FC in test [1] (10 µM) was determined as 1.06; in test [1] (50 µM), 0.61; in test [1] (100 µM compound 31), 0.70; in test [1] (10^-2 µM), 0.54; in test [1] (10^-3 µM), 0.61. In addition, the “mRNA translation (puromycin incorporation)” value in test [2] is “concentration‐dependent reduction in translation”.
`O=C(Nc1cc(CN2CCOCC2)ccc1F)c1cccc(Oc2cc(C(F)(F)F)ccn2)c1` [Compound 34, N-(2-Fluoro-5-(morpholinomethyl)phenyl)-3-((4-(trifluoromethyl)pyridin-2-yl)oxy)benzamide]: in test [1] (100 µM compound 34), the log2FC is reported as 0.3904. In addition, the “mRNA translation (puromycin incorporation)” value in test [2] is “did not reduce mRNA translation”.
